How the values were obtained:
MJY-alpha monolayers = experiment: Incorporation of radiolabeled precursors; format: cell-based
Description: The metabolism of treated MJY-alpha mammary tumor cell cultures were screened by monitoring the uptake and incorporation of 3H-uridine, 3H-thymidine, and 35S-methionine. Cultures were treated as described and given radiolabeled precursors in treatment medium at 0-24 for 24 to 48 hours during the treatment periods.
Levels of radioactivity incorporated into the cells were determined following harvesting of the cells on glass filters using a Mash II cell harvester. Each sample was examined in quadruplicate.
In addition to determining cellular viability by trypan blue exclusion, the levels of metabolic activity of PTT.119-treated cells were compared to solvent-treated and untreated controls. Confluent MJY-alpha monolayers were again processed as previously described and […], […], ^3 H-thymidine, and ^35 S-methionine incorporation quantitated during the 24 and 48 hour treatment periods. Following 24 hour tripeptide treatment, the only parameter that was substantially depressed compared to control cultures was the incorporation of ^35 S-radioactivity into cells treated with 15 uM PTT.119 (Table 10).

spontaneous leukemia = experiment: Treatment of spontaneous leukemia in AKR mice; format: in vivo
From the text: Leukemia in AKR mice, which is the result of the oncogenic activity of the endogenous Gross leukemia virus, has been effectively used as a model for human leukemias in the studies of tumor biology, chemotherapy, and chemoimmunotherapy. There is considerable evidence that leukemia in the AKR mice mimics human leukemias in many respects, and it is probable that AKR leukemia is analogous to human acute T-cell lymphocytic leukemia. Leukemic cells first appear in the thymus of mice at 6 to 12 months of age. Controlling this disease is formidable, since the cure or long range control of spontaneous leukemia in AKR mice require the therapeutic eradication of virtually all of the oncogenic cells. The time lapse between the first appearance of viable lymphoma cells in the thymus and the clinical diagnosis is about 30 days.
The effectiveness of the tripeptide compound in the treatment of spontaneous leukemia in AKR mice was tested. The clinical diagnosis of spontaneous leukemia in AKR mice was made with 95% accuracy by splenic and lymph node palpation, followed by leukocyte count. There is good evidence that at the time of clinical diagnosis there are 0.6-1.8×10^9 widely disseminated lymphoma cells in AKR mice. Without cytoreductive therapy, AKR mice die after diagnosis of spontaneous leukemia at the rate of 50% by 14 days, 90% by 33 days, and 96% by 56 days. […] Reduction of thymus and spleen weights to normal is indicative of eradication of the primary tumor. Leukemic AKR mice receiving either treatment sustained a mean survival time of 200% and 100%, respectively. It is also important and significant that the tripeptide compound treatment provides good sustainment since 30% of the treated animals in either group were alive after the onset on the therapy (FIG. 6).

[1] = test system: B-type mouse mammary tumor virus particles in MJY-alpha cells; experiment: Electron microscopy of thin sections; format: cell-based; details: 25 ug/ml for 2 hours
Description: Thin sections MJY-alpha mammary tumor cells were prepared according to standard techniques for electronmicroscopy. The magnification was scaled where the bar was equal to one um. […] The tumor virus particles are shown in the insert and also throughout the lower two-thirds of the photograph as rope-like sections. […] It should be noted that numerous microvilli are present with budding particles also in evidence. […] After that treatment period, the layer of cells was washed and then reincubated for one (1) day prior to further processing for electronmicroscopy. Although there are some microvilli with budding particles present, the number of such particles and buds is reduced. […] The layer was then similarily washed and reincubated for a two (2) days prior to further processing for electronmicroscopy.

L1210S = experiment: cells; format: cell-based
MMTV = format: cell-based, mouse
B-16 melanoma cells = experiment: Bioassay of tumorigenicity of in vitro treated tumor cells in syngeneic hosts; format: in vivo, C57BL/6 mice; details: for MEAN SURVIVAL TIME (MST) of recipients: control 28
From the text: Suspensions of untreated and tripeptide treated MJY-alpha mammary tumor, B-16 melanoma, and L-1210 leukemia cells were adjusted to a concentration of 1×10^7 cells/ml based on the initial tumor cell concentration before the tripeptide exposure. Tumor cells were inoculated into syngeneic hosts at a concentration of 1×10^6 cells in […]. Female BALB/c/Crgl recipients of MJY-alpha mammary tumor cells and male C57BL/6/Jx hosts receiving B16 melanoma cells were inoculated subcutaneously; BDf1 mice were given intraperitoneal injections of L-1210 cells. Subcutaneous tumors were measured along their long and short axes every 1 to 3 days; tumor size is reported as the product of the two measurements (mm^2). The examination periods for mice receiving L-1210, MJY-alpha and B-16 tumor grafts were 45, 80, and 85 days, respectively. All mice were autopsied at the time of death or sacrifice.

**Q.** For `CCOC(=O)[C@H](CCSC)NC(=O)[C@H](Cc1cccc(N(CCCl)CCCl)c1)NC(=O)[C@@H](N)Cc1ccc(F)cc1.Cl` [PTT.119, 3-(p-fluorophenyl)-L-alanyl-3-[m-bis(2-chloroethyl)aminophenyl]-L-alanyl-L-methionine ethyl ester hydrochloride], which “Relative level of incorporation of radiolabels (%)” value (shortened to “Relative level … (%)”) (MJY-alpha monolayers; 1.5 uM, 24 hours, 3H-thy) is on record?
**A.** Its value is 91.2%.

**Q.** And the “Relative level … (%)” value (MJY-alpha monolayers; 1.5 uM, 24 hours, 3H-ur)?
**A.** Its value is 90.9%.

**Q.** And the “Relative level … (%)” value (MJY-alpha monolayers; 1.5 uM, 24 hours, 35S-met)?
**A.** The value was 103.3%.

**Q.** And the “Relative level … (%)” value (MJY-alpha monolayers; 1.5 uM, 48 hours, 3H-thy)?
**A.** The value was 118.1%.

**Q.** And the “Relative level … (%)” value (MJY-alpha monolayers; 1.5 uM, 48 hours, 3H-ur)?
**A.** Its value is 103.4%.

**Q.** What about the “Relative level … (%)” value (MJY-alpha monolayers; 1.5 uM, 48 hours, 35S-met) of the same compound?
**A.** The value was 96.1%.

**Q.** What about the “Relative level … (%)” value (MJY-alpha monolayers; 7.5 uM, 24 hours, 3H-thy) of the same compound?
**A.** The value was 99.0%.

**Q.** And the “Relative level … (%)” value (MJY-alpha monolayers; 7.5 uM, 24 hours, 3H-ur)?
**A.** Its value is 100.6%.

**Q.** What about the “Relative level … (%)” value (MJY-alpha monolayers; 7.5 uM, 24 hours, 35S-met) of the same compound?
**A.** The value was 97.2%.

**Q.** And the “Relative level … (%)” value (MJY-alpha monolayers; 7.5 uM, 48 hours, 3H-thy)?
**A.** The value was 83.1%.

**Q.** And the “Relative level … (%)” value (MJY-alpha monolayers; 7.5 uM, 48 hours, 3H-ur)?
**A.** The value was 108.6%.

**Q.** And the “Relative level … (%)” value (MJY-alpha monolayers; 7.5 uM, 48 hours, 35S-met)?
**A.** Its value is 89.9%.

**Q.** And the “depression of 3H-thymidine incorporation” value (MJY-alpha monolayers; 7.5 uM, second day of treatment)?
**A.** Its value is 17%.

**Q.** And the “Relative level … (%)” value (MJY-alpha monolayers; 15.0 uM, 24 hours, 3H-thy)?
**A.** The value was 103.6%.

**Q.** And the “Relative level … (%)” value (MJY-alpha monolayers; 15.0 uM, 24 hours, 3H-ur)?
**A.** The value was 100.1%.

**Q.** What about the “Relative level … (%)” value (MJY-alpha monolayers; 15.0 uM, 24 hours, 35S-met) of the same compound?
**A.** Its value is 82.7%.

**Q.** And the “Relative level … (%)” value (MJY-alpha monolayers; 15.0 uM, 48 hours, 3H-thy)?
**A.** Its value is 82.9%.

**Q.** And the “Relative level … (%)” value (MJY-alpha monolayers; 15.0 uM, 48 hours, 3H-ur)?
**A.** Its value is 80.5%.

**Q.** What about the “Relative level … (%)” value (MJY-alpha monolayers; 15.0 uM, 48 hours, 35S-met) of the same compound?
**A.** The value was 80.4%.

**Q.** And the “reductions in levels of cell-associated radioactivity, all three precursors” value (MJY-alpha monolayers; 15 uM, second day of treatment)?
**A.** The value was 20%.

**Q.** And the mean survival time (spontaneous leukemia; 5 mg per kg on days 1, 4, 7, 21, and 42)?
**A.** The mean survival time was 100%.

**Q.** And the mean survival time (spontaneous leukemia; 10 mg per kg on days 1 and 14)?
**A.** Its mean survival time is 200%.

**Q.** What about the “leukemic thymus and spleen weights” value (spontaneous leukemia; after chemotherapy, either regimen) of the same compound?
**A.** Its value is “Significant reductions”.

**Q.** What about the “treated animals alive after the onset of therapy” value (spontaneous leukemia; either treatment group) of the same compound?
**A.** Its value is 30%.

**Q.** And the “number of microvilli budding particles and buds” value ([1]; reincubated 1 day)?
**A.** Its value is “reduced”.

**Q.** And the number of microvilli ([1]; reincubated 2 days)?
**A.** The number of microvilli was “reduced even farther”.

**Q.** What about the IC50 (L1210S; 24 h, read-out: T.C.D.50) of the same compound?
**A.** Its IC50 is 2380 nM.

**Q.** And the T.C.D.100 (L1210S; L1210S, 24 hours exposure)?
**A.** The T.C.D.100 was 7.5 µM.

**Q.** And the “less MMTV produced compared to controls (labeled uridine)” value (MMTV)?
**A.** The value was 37%.

**Q.** What about the “reduction of MMTV replication” value (MMTV) of the same compound?
**A.** The value was 27%.

**Q.** What about the “reduction of viral replication (labeled uridine)” value (MMTV) of the same compound?
**A.** Its value is 42%.

**Q.** And the “tumor growth in recipients” value (B-16 melanoma cells; 10^6 B-16 cells treated with 25 ug or higher for 30 to 240 min)?
**A.** Its value is “complete absence of tumor growth”.

**Q.** What about the “MEAN SURVIVAL TIME (MST) of recipients” value (B-16 melanoma cells; B-16, 5 ug/ml, 60 min) of the same compound?
**A.** The value was 31 days.

**Q.** And the “MEAN SURVIVAL TIME (MST) of recipients” value (B-16 melanoma cells; B-16, 5 ug/ml, 120 min)?
**A.** Its value is 33 days.

**Q.** And the “MEAN SURVIVAL TIME (MST) of recipients” value (B-16 melanoma cells; B-16, 5 ug/ml, 240 min)?
**A.** Its value is 41 days.

**Q.** And the “MEAN SURVIVAL TIME (MST) of recipients” value (B-16 melanoma cells; B-16, 10 ug/ml, 30 min)?
**A.** Its value is 35 days.

**Q.** What about the “MEAN SURVIVAL TIME (MST) of recipients” value (B-16 melanoma cells; B-16, 10 ug/ml, 60 min) of the same compound?
**A.** The value was 35 days.

**Q.** What about the “MEAN SURVIVAL TIME (MST) of recipients” value (B-16 melanoma cells; B-16, 10 ug/ml, 120 min) of the same compound?
**A.** The value was 35 days.

**Q.** And the “MEAN SURVIVAL TIME (MST) of recipients” value (B-16 melanoma cells; B-16, 10 ug/ml, 240 min)?
**A.** The value was 45 days.

**Q.** And the “MEAN SURVIVAL TIME (MST) of recipients” value (B-16 melanoma cells; B-16, 25 ug/ml, 30 min)?
**A.** Its value is 52 days.

**Q.** What about the “MEAN SURVIVAL TIME (MST) of recipients” value (B-16 melanoma cells; B-16, 25 ug/ml, 60 min) of the same compound?
**A.** Its value is 68 days.

**Q.** And the “MEAN SURVIVAL TIME (MST) of recipients” value (B-16 melanoma cells; B-16, 25 ug/ml, 120 min)?
**A.** Its value is 65 days.

**Q.** And the “initial lag period between inoculation and appearance of palpable tumors” value (B-16 melanoma cells; B-16, increasing dosages, 2 hr treatment)?
**A.** The value was “lengthened”.

**Q.** And the “reduction of viable tumor cell population” value (B-16 melanoma cells; B-16, inferred from LD100 of 100 viable cells)?
**A.** The value was “at least 99.9%”.

**Q.** What about the “tumor growth rates of untreated and treated cells” value (B-16 melanoma cells; B-16, once graft established) of the same compound?
**A.** The value was “identical”.
